Assay results as given in patent publication EP1433789A1, “Pyrrolopyrazines and their use as selective apoptosis inducers” (Aponetics AG, priority 2002, dated 2004).

Experiments:
[1] = system: A20; assay: AnnexinV/7-AAD staining; type: cell-based, mouse; details: A20, 10 µM, 24 h treatment
Method in brief: (§1)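 Cells treated with compound at 10 µM final for 24 h, then stained with AnnexinV-GST/anti-GST Alexa 488 and 7-AAD and analysed by flow cytometry. Percent positive cells scored as 0 (<10%), 1 (10–50%) or 2 (>50%).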

[2] = system: Jurkat; assay: AnnexinV/7-AAD staining; type: cell-based, human; details: 10 µM, 24 h treatment
Method in brief: as §1

[3] = system: HeLa; assay: AnnexinV/7-AAD staining; type: cell-based, human; details: 10 µM, 24 h treatment
Method in brief: as §1

[4] = system: Ramos; assay: AnnexinV/7-AAD staining; type: cell-based, human; details: 10 µM, 24 h treatment
Method in brief: as §1

[5] = system: Jurkat; assay: Hoechst 33342 nuclear staining (Table 3); type: cell-based, human; set-up: key: 0 relating to no activity; 1 relating to weak activity comprising less than 50% of the cells; score 2 relating to strong activity comprising more than 50% of the cells
Method in brief: (§2)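 Adherent cells (3-5×10^3, pre-spread 24 h) or suspension cells (8-10×10^3) treated with compounds at 10, 3, 1 and 0.3 µM for 24 or 48 h, then Hoechst 33342 stained for 30 min. Apoptotic nuclear morphology scored by fluorescence microscopy: 0 none, 1 weak (<50% cells), 2 strong (>50% cells).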

[6] = system: HeLa; assay: Hoechst 33342 nuclear staining (Table 3); type: cell-based, human; set-up: key: 0 relating to no activity; 1 relating to weak activity comprising less than 50% of the cells; score 2 relating to strong activity comprising more than 50% of the cells
Method in brief: as §2

[7] = system: Jurkat; assay: MTS proliferation assay; type: cell-based; details: Homo sapiens, 72 h incubation
Method: (§3) The assay is performed in 96 well tissue culture plates. The cells (range : 1.5*10^3-10^4) are seeded out in 80 µl complete medium 24 h prior to compound treatment. The test compounds are added in 20 µl complete medium containing max 5% DMSO. The final compound concentrations in the assays are 10 µM, 3 µM,1 µM and 0.3 µM, respectively. The assay plates are incubated for 72 h at culture conditions. The MTS reagent is prepared according to the manufacturer's protocol (Promega G1111 ). 20 µl MTS reagent are added to each well, the assay plates are quickly spun and incubated for another 3 h at culture conditions. Subsequently, the plates are shortly shaked and absorption measured with a microplate-reader at 492 nm.

[8] = system: HeLa; assay: MTS proliferation assay; type: cell-based; details: Homo sapiens, 72 h incubation
Method: as §3

[9] = system: K562; assay: MTS proliferation assay; type: cell-based; details: Homo sapiens, K562, 72 h incubation
Method: as §3

[10] = system: Jurkat; assay: BrdU incorporation (proliferation); type: cell-based, human; set-up: key: 0 for no activity; 1 for a moderate inhibition; 2 for strong inhibition of proliferation; details: 48 h
Method: (§4) Adherent cells are seeded out at 2 - 4*10^4 cells/well/ml in 24 well tissue culture plates 24 h prior to treatment. Suspension cells are seeded out at 2*10^5 cells/ml/well in 24 well plates. Compounds are added leading to final concentrations of 3 µM and 10 µM, respectively. Subsequently, BrdU (Molecular Probes #B-23151) at 10 µM final concentration is added and the plates are incubated for 48 h. After the incubation cells are processed according to standard procedures. The detection of the incorporated BrdU is done with the anti-bromodeoxyuridine Mab PRB-1, Alexa Fluor 660 conjugate (Molecular Probes #A-21306). The analysis is performed on a FACSCalibur™ by monitoring the fluorescence activity on FL3. The readout reflects DNA synthesis which is a hallmark for proliferation. The scores are defined the following: 0 for no activity, 1 for a moderate inhibition and 2 for strong inhibition of proliferation. Table 7 indicates inhibitory activities of several tested compounds on proliferation.

[11] = system: HeLa; assay: BrdU incorporation (proliferation); type: cell-based, human; set-up: key: 0 for no activity; 1 for a moderate inhibition; 2 for strong inhibition of proliferation; details: 48 h
Method: as §4

[12] = system: A20; assay: Hoechst 33342 nuclear staining (Table 3); type: cell-based, mouse; set-up: key: 0 relating to no activity; 1 relating to weak activity comprising less than 50% of the cells; score 2 relating to strong activity comprising more than 50% of the cells
Method: This assay is performed in 96 well tissue culture plates. Appropriate number of cells (adherent cells: 3 - 5*10^3, suspension cells: 8 - 10*10^3) are being seeded out in 80 µl complete medium. Adherent cells are incubated for 24 h for proper spreading out before addition of test compounds while suspension cells are immediately treated with test compounds after seeding out. The test compounds are added in 20 µl complete medium containing max 5% DMSO. The final compound concentrations in the assays are 10 µM, 3 µM,1 µM and 0.3 µM, respectively. After 24 h or 48 h incubation at culture conditions, 10 µl medium containing Hoechst 33342 dye (Sigma B-2261) at 2-5 µg/ml are added to each well. The assay plates are then further incubated for 30 minutes and subsequently analyzed with a standard inverted fluorescence microscope. The readout allows the determination of the fraction of apoptotic nuclei as well as other morphological criteria specific for apoptosis as a function of the treatment. The following scores are used: 0 relating to no activity, 1 relating to weak activity comprising less than 50% of the cells and score 2 relating to strong activity comprising more than 50% of the cells.

| Structure (SMILES) | percentage of positively stained cells (AnnexinV/7-AAD staining) [1] | percentage of positively stained cells (AnnexinV/7-AAD staining) [2] | percentage of positively stained cells (AnnexinV/7-AAD staining) [3] | percentage of positively stained cells (AnnexinV/7-AAD staining) [4] | Hoechst 33342 nuclear staining ([5]; 24h, conc 0.3 (µM)) | Hoechst 33342 nuclear staining ([5]; 24h, conc 1 (µM)) | Hoechst 33342 nuclear staining ([5]; 24h, conc 3 (µM)) | Hoechst 33342 nuclear staining ([5]; 24h, conc 10 (µM)) | Hoechst 33342 nuclear staining ([5]; 48h, conc 0.3 (µM)) | Hoechst 33342 nuclear staining ([5]; 48h, conc 1 (µM)) | Hoechst 33342 nuclear staining ([5]; 48h, conc 3 (µM)) | Hoechst 33342 nuclear staining ([5]; 48h, conc 10 (µM)) | Hoechst 33342 nuclear staining ([6]; 24h, conc 0.3 (µM)) | Hoechst 33342 nuclear staining ([6]; 24h, conc 1 (µM)) | Hoechst 33342 nuclear staining ([6]; 24h, conc 3 (µM)) | Hoechst 33342 nuclear staining ([6]; 24h, conc 10 (µM)) | Hoechst 33342 nuclear staining ([6]; 48h, conc 0.3 (µM)) | Hoechst 33342 nuclear staining ([6]; 48h, conc 1 (µM)) | Hoechst 33342 nuclear staining ([6]; 48h, conc 3 (µM)) | Hoechst 33342 nuclear staining ([6]; 48h, conc 10 (µM)) | further results |
| --- | --- | --- | --- | --- | --- | --- | --- | --- | --- | --- | --- | --- | --- | --- | --- | --- | --- | --- | --- | --- | --- |
| CC1(C)Cc2ccccc2-c2c(Br)c3nc4ccccc4nc3n21 [No. 2, 13-Bromo-6,6-dimethyl-5,6-dihydro-6a,7,12-triaza-dibenzo[a,h]fluorene] | 2 (score 2 relates to more than 50% positivity) | 2 (score 2 relates to more than 50% positivity) | 1 (score 1 relates to more than 10% but less than 50%) | 2 (score 2 relates to more than 50% positivity) | 1 (1 relating to weak activity comprising less than 50% of the cells) | 1 (1 relating to weak activity comprising less than 50% of the cells) | 2 (score 2 relating to strong activity comprising more than 50% of the cells) | 2 (score 2 relating to strong activity comprising more than 50% of the cells) | 2 (score 2 relating to strong activity comprising more than 50% of the cells) | 2 (score 2 relating to strong activity comprising more than 50% of the cells) | 2 (score 2 relating to strong activity comprising more than 50% of the cells) | 2 (score 2 relating to strong activity comprising more than 50% of the cells) | 0 | 0 | 0 | 0 | 0 | 1 (1 relating to weak activity comprising less than 50% of the cells) | 2 (score 2 relating to strong activity comprising more than 50% of the cells) | 2 (score 2 relating to strong activity comprising more than 50% of the cells) |  |
| COc1cc2c(cc1OC)-c1c(Br)c3nc4ccccc4nc3n1C(C)C2 (stereo not drawn) [compound 10] | 1 (score 1 relates to more than 10% but less than 50%) | 2 (score 2 relates to more than 50% positivity) | 2 (score 2 relates to more than 50% positivity) | 2 (score 2 relates to more than 50% positivity) | 1 (1 relating to weak activity comprising less than 50% of the cells) | 2 (score 2 relating to strong activity comprising more than 50% of the cells) | 2 (score 2 relating to strong activity comprising more than 50% of the cells) | 2 (score 2 relating to strong activity comprising more than 50% of the cells) | 1 (1 relating to weak activity comprising less than 50% of the cells) | 2 (score 2 relating to strong activity comprising more than 50% of the cells) | 2 (score 2 relating to strong activity comprising more than 50% of the cells) | 2 (score 2 relating to strong activity comprising more than 50% of the cells) | 0 | 0 | 0 | 2 (score 2 relating to strong activity comprising more than 50% of the cells) | 0 | 0 | 2 (score 2 relating to strong activity comprising more than 50% of the cells) | 2 (score 2 relating to strong activity comprising more than 50% of the cells) | IC50 [7]: > 10 µM; IC50 [8]: 1 to 10 µM; IC50 [9]: > 10 µM; BrdU incorporation (inhibition of proliferation) ([10]; 3uM): 2; BrdU incorporation (inhibition of proliferation) ([10]; 10uM): 1; BrdU incorporation (inhibition of proliferation) ([11]; 3uM): 0; BrdU incorporation (inhibition of proliferation) ([11]; 10uM): 0; Hoechst 33342 nuclear staining ([12]; A20, 24h, conc 0.3 (µM)): 0; Hoechst 33342 nuclear staining ([12]; A20, 24h, conc 1 (µM)): 0; Hoechst 33342 nuclear staining ([12]; A20, 24h, conc 3 (µM)): 0; Hoechst 33342 nuclear staining ([12]; A20, 24h, conc 10 (µM)): 2 (score 2 relating to strong activity comprising more than 50% of the cells); Hoechst 33342 nuclear staining ([12]; A20, 48h, conc 0.3 (µM)): 0; Hoechst 33342 nuclear staining ([12]; A20, 48h, conc 1 (µM)): 0; Hoechst 33342 nuclear staining ([12]; A20, 48h, conc 3 (µM)): 2 (score 2 relating to strong activity comprising more than 50% of the cells) |
| CC1Cc2ccccc2-c2c(Cl)c3nc4ccccc4nc3n21 (stereo not drawn) [compound 11] | 1 (score 1 relates to more than 10% but less than 50%) | 0 (Score 0 relates to less than 10%) | 1 (score 1 relates to more than 10% but less than 50%) | 2 (score 2 relates to more than 50% positivity) | 0 | 0 | 2 (score 2 relating to strong activity comprising more than 50% of the cells) | 2 (score 2 relating to strong activity comprising more than 50% of the cells) | 1 (1 relating to weak activity comprising less than 50% of the cells) | 2 (score 2 relating to strong activity comprising more than 50% of the cells) | 2 (score 2 relating to strong activity comprising more than 50% of the cells) | 2 (score 2 relating to strong activity comprising more than 50% of the cells) | 0 | 0 | 0 | 0 | 0 | 0 | 0 | 2 (score 2 relating to strong activity comprising more than 50% of the cells) | IC50 [7]: > 10 µM; IC50 [8]: > 10 µM; IC50 [9]: > 10 µM; BrdU incorporation (inhibition of proliferation) ([10]; 3uM): 0; BrdU incorporation (inhibition of proliferation) ([10]; 10uM): 2; BrdU incorporation (inhibition of proliferation) ([11]; 3uM): 1; Hoechst 33342 nuclear staining ([12]; A20, 24h, conc 1 (µM)): 0; Hoechst 33342 nuclear staining ([12]; A20, 24h, conc 3 (µM)): 0; Hoechst 33342 nuclear staining ([12]; A20, 24h, conc 10 (µM)): 0; Hoechst 33342 nuclear staining ([12]; A20, 48h, conc 0.3 (µM)): 0; Hoechst 33342 nuclear staining ([12]; A20, 48h, conc 1 (µM)): 0; Hoechst 33342 nuclear staining ([12]; A20, 48h, conc 3 (µM)): 0; Hoechst 33342 nuclear staining ([12]; A20, 48h, conc 10 (µM)): 2 (score 2 relating to strong activity comprising more than 50% of the cells) |
